Measurements: PubChem BioAssay (NCI)
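48-hour exposure; five concentrations; linearly interpolated endpoints. GI50 = concentration required for 50% inhibition of growth. Definition used: TGI = concentration required for complete inhibition of growth.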

Tests used:
Test in all cases: NCI-60 cell line screen, 48 h
786-0 renal = test system: 786-0 renal
A498 renal = test system: A498 renal
A549 NSCLC = test system: A549 NSCLC
ACHN renal = test system: ACHN renal
BT-549 breast = test system: BT-549 breast
CAKI-1 renal = test system: CAKI-1 renal
CCRF-CEM leukemia = test system: CCRF-CEM leukemia
COLO 205 colon = test system: COLO 205 colon
DU-145 prostate = test system: DU-145 prostate
EKVX NSCLC = test system: EKVX NSCLC
HCC-2998 colon = test system: HCC-2998 colon
HCT-116 colon = test system: HCT-116 colon
HCT-15 colon = test system: HCT-15 colon
HL-60(TB) leukemia = test system: HL-60(TB) leukemia
HOP-62 NSCLC = test system: HOP-62 NSCLC
HOP-92 NSCLC = test system: HOP-92 NSCLC
HS 578T breast = test system: HS 578T breast
HT29 colon = test system: HT29 colon
IGROV1 ovarian = test system: IGROV1 ovarian
K-562 leukemia = test system: K-562 leukemia
KM12 colon = test system: KM12 colon
LOX IMVI melanoma = test system: LOX IMVI melanoma
M14 melanoma = test system: M14 melanoma
MALME-3M melanoma = test system: MALME-3M melanoma
MCF7 breast = test system: MCF7 breast
MDA-MB-231 breast = test system: MDA-MB-231 breast
MDA-MB-435 = test system: MDA-MB-435
MDA-MB-468 breast = test system: MDA-MB-468 breast
MOLT-4 leukemia = test system: MOLT-4 leukemia
NCI-H226 lung = test system: NCI-H226 lung

Question: Which GI50 (786-0 renal) does the source give for `CCN1C(=O)N(CC)C2NNC(Sc3c(C(=O)O)c4ccccc4n(CCC(C)C)c3=O)=NC21` (centres undefined) here?
Answer: 14.5 µM

Question: What about the TGI (786-0 renal) of the same molecule?
Answer: 62.8 µM

Question: What about the GI50 (A498 renal) of the same molecule?
Answer: 19.6 µM

Question: What about the TGI (A498 renal) of the same molecule?
Answer: 54.3 µM

Question: What about the GI50 (A549 NSCLC) of the same molecule?
Answer: 6.07 µM

Question: What about the TGI (A549 NSCLC) of the same molecule?
Answer: 24.2 µM

Question: What about the GI50 (ACHN renal) of the same molecule?
Answer: 5.75 µM

Question: What about the TGI (ACHN renal) of the same molecule?
Answer: 19.4 µM

Question: And the GI50 (BT-549 breast)?
Answer: 35.8 µM

Question: What about the TGI (BT-549 breast) of the same molecule?
Answer: 91.4 µM

Question: And the GI50 (CAKI-1 renal)?
Answer: 5.21 µM

Question: And the TGI (CAKI-1 renal)?
Answer: 19.8 µM

Question: What about the GI50 (CCRF-CEM leukemia) of the same molecule?
Answer: 4.62 µM

Question: What about the TGI (CCRF-CEM leukemia) of the same molecule?
Answer: > 100 µM

Question: And the GI50 (COLO 205 colon)?
Answer: 3.65 µM

Question: And the TGI (COLO 205 colon)?
Answer: 11.6 µM

Question: What about the GI50 (DU-145 prostate) of the same molecule?
Answer: 5.64 µM

Question: What about the TGI (DU-145 prostate) of the same molecule?
Answer: 65.7 µM

Question: What about the GI50 (EKVX NSCLC) of the same molecule?
Answer: 3.5 µM

Question: And the TGI (EKVX NSCLC)?
Answer: 17.7 µM

Question: And the GI50 (HCC-2998 colon)?
Answer: 2410 nM

Question: What about the TGI (HCC-2998 colon) of the same molecule?
Answer: 7.91 µM

Question: And the GI50 (HCT-116 colon)?
Answer: 4.12 µM

Question: What about the TGI (HCT-116 colon) of the same molecule?
Answer: > 100 µM

Question: And the GI50 (HCT-15 colon)?
Answer: 2750 nM

Question: What about the TGI (HCT-15 colon) of the same molecule?
Answer: 13.7 µM

Question: And the GI50 (HL-60(TB) leukemia)?
Answer: 3.12 µM

Question: What about the TGI (HL-60(TB) leukemia) of the same molecule?
Answer: 34.1 µM

Question: And the GI50 (HOP-62 NSCLC)?
Answer: 6.68 µM

Question: What about the TGI (HOP-62 NSCLC) of the same molecule?
Answer: 43 µM

Question: And the GI50 (HOP-92 NSCLC)?
Answer: 16.5 µM

Question: And the TGI (HOP-92 NSCLC)?
Answer: 47.4 µM

Question: And the GI50 (HS 578T breast)?
Answer: 3.37 µM

Question: And the TGI (HS 578T breast)?
Answer: 31 µM

Question: And the GI50 (HT29 colon)?
Answer: 3.33 µM

Question: What about the TGI (HT29 colon) of the same molecule?
Answer: 13.3 µM

Question: And the GI50 (IGROV1 ovarian)?
Answer: 3.06 µM

Question: And the TGI (IGROV1 ovarian)?
Answer: 18.1 µM

Question: What about the GI50 (K-562 leukemia) of the same molecule?
Answer: 3.69 µM

Question: And the TGI (K-562 leukemia)?
Answer: > 100 µM

Question: What about the GI50 (KM12 colon) of the same molecule?
Answer: 4.12 µM

Question: What about the TGI (KM12 colon) of the same molecule?
Answer: 53.5 µM

Question: What about the GI50 (LOX IMVI melanoma) of the same molecule?
Answer: 5.11 µM

Question: What about the TGI (LOX IMVI melanoma) of the same molecule?
Answer: 18.5 µM

Question: What about the GI50 (M14 melanoma) of the same molecule?
Answer: 8.47 µM

Question: And the TGI (M14 melanoma)?
Answer: > 100 µM

Question: What about the GI50 (MALME-3M melanoma) of the same molecule?
Answer: 11.2 µM

Question: What about the TGI (MALME-3M melanoma) of the same molecule?
Answer: 28.3 µM

Question: What about the GI50 (MCF7 breast) of the same molecule?
Answer: 878 nM

Question: And the TGI (MCF7 breast)?
Answer: 15.1 µM

Question: And the GI50 (MDA-MB-231 breast)?
Answer: 3.69 µM

Question: What about the TGI (MDA-MB-231 breast) of the same molecule?
Answer: 15.7 µM

Question: And the GI50 (MDA-MB-435)?
Answer: 2130 nM

Question: And the TGI (MDA-MB-435)?
Answer: 5.5 µM

Question: What about the GI50 (MDA-MB-468 breast) of the same molecule?
Answer: 386 nM

Question: And the TGI (MDA-MB-468 breast)?
Answer: 3.33 µM

Question: What about the GI50 (MOLT-4 leukemia) of the same molecule?
Answer: 4.79 µM

Question: What about the TGI (MOLT-4 leukemia) of the same molecule?
Answer: > 100 µM

Question: And the GI50 (NCI-H226 lung)?
Answer: 3.87 µM
